For 23 compounds, IC50 results are on record in patent US11578061B2, “Inhibitors of LRRK2 kinase” (Halia Therapeutics, Inc., priority 2021, dated 2023).

The target in the assay is recombinant human LRRK2 (catalytic domain only [amino acids 970-2527], GST-tagged) (Homo sapiens (Human), UniProt Q5S007). Nature of the assay: LRRK2 Enzymatic Assay. It is filed as biochemical. Particulars: LRRKtide substrate, [32P]-ATP. How it is done: LRRKtide substrate (peptide sequence RLGRDKYKTLRQIRQ, derived from human ezrin [amino acids 561-573], moesin [amino acids 539-553] and radixin [amino acids 558-570], obtained from SignalChem, catalogue #L10-58, reconstituted in 20 mM Tris-HCl at pH 7.5 to a final concentration of 1 mg/mL, assay concentration 20 μM) and recombinant human LRRK2 (catalytic domain only [amino acids 970-2527], GST-tagged, expressed in insect cells, obtained from ThermoFisher Scientific, catalogue #PV4874, 0.35 mg/mL, assay concentration 30 nM) were mixed in assay buffer (20 mM Hepes pH 7.5, 10 mM MgCl2, 1 mM EGTA, 0.02% Brij35, 0.02 mg/ml BSA, 0.1 mM Na3VO4, 2 mM DTT, 1% DMSO). Compounds of interest (in DMSO, serial 3-fold dilution from 10 μM to 0.5 nM) or control (1% DMSO) were dispensed into the kinase reaction mixture by Acoustic technology (Echo550; nanoliter range). After incubation at room temperature for 20 minutes, the kinase reaction was initiated by addition of [^32P]-ATP (Specific activity 10 μCi/μl) and the mixture was incubated at room temperature for 2 hours. The reaction was then stopped by spotting the reaction mixture on strips of phosphocellulose P81 paper. Following washing, the radioactivity of the P81 paper was measured and kinase activity data were expressed as the percent remaining kinase activity in test samples compared to vehicle (dimethyl sulfoxide) reactions. IC50 values and curve fits were obtained using Prism (GraphPad Software).

Bounds are passed on as bounds.

Sequence of recombinant human LRRK2 (catalytic domain only [amino acids 970-2527], GST-tagged) (Q5S007 970-2527): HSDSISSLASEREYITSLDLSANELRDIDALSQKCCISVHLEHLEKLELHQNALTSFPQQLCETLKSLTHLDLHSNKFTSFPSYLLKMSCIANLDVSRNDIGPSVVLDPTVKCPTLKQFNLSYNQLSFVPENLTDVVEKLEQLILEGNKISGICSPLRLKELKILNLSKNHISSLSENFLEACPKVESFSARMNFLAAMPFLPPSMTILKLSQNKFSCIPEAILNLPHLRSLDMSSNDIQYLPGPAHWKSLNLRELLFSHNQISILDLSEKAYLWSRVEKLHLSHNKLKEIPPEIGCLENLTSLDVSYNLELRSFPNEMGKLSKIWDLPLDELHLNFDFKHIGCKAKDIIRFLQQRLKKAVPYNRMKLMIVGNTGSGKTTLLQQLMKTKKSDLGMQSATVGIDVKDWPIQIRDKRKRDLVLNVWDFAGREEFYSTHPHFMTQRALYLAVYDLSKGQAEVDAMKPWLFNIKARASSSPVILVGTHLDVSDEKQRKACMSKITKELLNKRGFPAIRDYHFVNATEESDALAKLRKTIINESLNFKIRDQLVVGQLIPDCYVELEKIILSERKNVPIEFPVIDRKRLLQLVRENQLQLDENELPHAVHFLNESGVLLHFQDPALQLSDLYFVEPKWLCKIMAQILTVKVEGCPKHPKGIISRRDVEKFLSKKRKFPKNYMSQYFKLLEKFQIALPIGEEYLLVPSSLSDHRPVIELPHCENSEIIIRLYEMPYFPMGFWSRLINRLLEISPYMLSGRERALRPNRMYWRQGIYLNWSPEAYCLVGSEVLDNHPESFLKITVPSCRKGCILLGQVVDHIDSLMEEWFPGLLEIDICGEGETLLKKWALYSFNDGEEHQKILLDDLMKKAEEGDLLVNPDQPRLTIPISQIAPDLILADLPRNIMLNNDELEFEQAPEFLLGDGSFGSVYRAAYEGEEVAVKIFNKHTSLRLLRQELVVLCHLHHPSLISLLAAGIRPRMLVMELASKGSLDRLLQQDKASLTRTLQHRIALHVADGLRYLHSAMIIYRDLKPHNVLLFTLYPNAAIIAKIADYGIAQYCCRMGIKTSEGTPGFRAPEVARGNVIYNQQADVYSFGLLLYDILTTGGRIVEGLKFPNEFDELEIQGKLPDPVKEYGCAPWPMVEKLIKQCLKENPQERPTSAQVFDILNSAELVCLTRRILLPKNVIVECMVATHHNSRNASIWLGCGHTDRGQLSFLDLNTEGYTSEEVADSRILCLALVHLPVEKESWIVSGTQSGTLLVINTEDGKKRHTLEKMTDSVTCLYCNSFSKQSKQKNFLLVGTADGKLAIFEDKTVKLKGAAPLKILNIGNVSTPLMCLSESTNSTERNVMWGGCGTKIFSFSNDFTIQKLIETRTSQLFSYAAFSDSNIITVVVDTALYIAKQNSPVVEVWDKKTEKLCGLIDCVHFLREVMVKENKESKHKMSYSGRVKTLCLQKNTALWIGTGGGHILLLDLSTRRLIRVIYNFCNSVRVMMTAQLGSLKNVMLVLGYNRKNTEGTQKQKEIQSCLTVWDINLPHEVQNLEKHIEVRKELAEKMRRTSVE

In general, IC50 refers to the point on the concentration scale where inhibition reaches its midpoint. Turning to `Cc1nn(C(C)(C)C#N)cc1Nc1ncc(F)c(OCC2CS(=O)(=O)C2)n1` [Example 289, 2-(4-((4-((1,1-dioxidothietan-3-yl)methoxy)-5-fluoropyrimidin-2-yl)amino)-3-methyl-1H-pyrazol-1-yl)-2-methylpropanenitrile], the IC50 is > 400 nM.

For `C[C@@H]1CN(c2ccc(Nc3ncc(F)c(OCC45CCC(O)(CC4)CC5)n3)cc2)C[C@H](C)O1` [Example 143, 4-(((2-((4-((2S,6R)-2,6-dimethylmorpholino)phenyl)amino)-5-fluoropyrimidin-4-yl)oxy)methyl)bicyclo[2.2.2]octan-1-ol], the IC50 lay in the range of 50 to 200 nM.

On to `CC(=O)NC1CCC(C)(COc2ccnc(Nc3ccc(N4CCOCC4)cc3)n2)CC1` (centres unmarked) [Example 91, N-(4-methyl-4-(((2-((4-morpholinophenyl)amino)pyrimidin-4-yl)oxy)methyl)cyclo-hexyl)acetamide], for which the IC50 was > 400 nM.

Turning to `Cc1nn(C(C)(C)C#N)cc1Nc1ncc(F)c(OCC2CCC(O)(C(F)(F)F)CC2)n1` (centres unmarked) [Example 262, 2-(4-((5-fluoro-4-((4-hydroxy-4-(trifluoromethyl)cyclohexyl)methoxy)pyrimidin-2-yl)amino)-3-methyl-1H-pyrazol-1-yl)-2-methylpropanenitrile], the half-inhibitory concentration (IC50) was in the range of 50 to 200 nM.

As for `CCN1CCN(Cc2ccc(Nc3ncc(Cl)c(OCC4CCC(O)CC4)n3)nc2)CC1` (centres unmarked) [Example 131, 4-(((5-chloro-2-((5-((4-ethylpiperazin-1-yl)methyl)pyridin-2-yl)amino)pyrimidin-4-yl)oxy)methyl)cyclohexan-1-ol], the IC50 was > 400 nM.

Consider `Cc1nn(C(C)(C)C#N)cc1Nc1ncc(Cl)c(OCC2CC3(C2)CN(C)C3)n1` [Example 70, 2-(4-((5-chloro-4-((2-methyl-2-azaspiro[3.3]heptan-6-yl)methoxy)pyrimidin-2-yl)amino)-3-methyl-1H-pyrazol-1-yl)-2-methylpropanenitrile], for which the 50% inhibitory concentration (IC50) is < 50 nM.

For `CC(=O)N1CCC(COc2nc(Nc3ccc(N4CCOCC4)cc3)ncc2Cl)C(F)(F)C1` (centres unmarked) [Example 95, 1-(4-(((5-chloro-2-((4-morpholinophenyl)amino)pyrimidin-4-yl)oxy)methyl)-3,3-difluoropiperidin-1-yl)ethan-1-one], the IC50 is < 50 nM.

For `CN[C@H]1CC[C@H](COc2nc(Nc3cn(C(C)(C)C#N)nc3C)ncc2F)CC1` [Example 43, 2-(4-((5-fluoro-4-(((1R,4R)-4-(methylamino)cyclo-hexyl)methoxy)py-rimidin-2-yl)amino)-3-methyl-1H-pyrazol-1-yl)-2-methylpropanenitrile], the IC50 was < 50 nM.

For the compound `N[C@H]1CC[C@@H](COc2ccnc(Nc3ccc(N4CCOCC4)cc3)n2)C1` [Example 15, 4-(((1R,3S)-3-aminocyclopentyl)methoxy)-N-(4-morpholinophenyl) pyrimidin-2-amine], the IC50 is 50 to 200 nM.

Consider `Cc1nn(C(C)(C)C#N)cc1Nc1ncc(F)c(OCC2CCC(OC(F)(F)F)CC2)n1` (racemic) [Example 284, 2-(4-((5-fluoro-4-((4-(trifluoromethoxy)cyclohexyl)methoxy)pyrimidin-2-yl)amino)-3-methyl-1H-pyrazol-1-yl)-2-methylpropanenitrile], for which the IC50 was 200 to 400 nM.

On to `Cc1nn(C(C)(C)C#N)cc1Nc1ncc(Cl)c(OCC2CC(C)OC(C)C2)n1` (centres unmarked) [Example 149, 2-(4-((5-chloro-4-((2,6-dimethyltetrahydro-2H-pyran-4-yl)methoxy)pyrimidin-2-yl)amino)-3-methyl-1H-pyrazol-1-yl)-2-methylpropanenitrile], for which the IC50 is < 50 nM.

Consider `Cc1nn(C2CC(C#N)C2)cc1Nc1ncc(Cl)c(OCC2(F)CCNCC2)n1` (centres unmarked) [Example 21, 3-(4-((5-chloro-4-((4-fluoropiperidin-4-yl)methoxy)pyrimidin-2-yl)amino)-3-methyl-1H-pyrazol-1-yl)cyclobutane-1-carbonitrile], for which the IC50 was < 50 nM.

For `CC(=O)N[C@H]1CC[C@@H](COc2ccnc(Nc3ccc(N4CCOCC4)cc3)n2)C1` [Example 89, N-((1S,3R)-3-(((2-((4-morpholinophenyl)amino)pyrimidin-4-yl)oxy)methyl)cyclo-pentyl)acetamide], the IC50 was > 400 nM.

Take `C[C@@H]1CN(c2ccc(Nc3ncc(F)c(OCC4CCC(O)(C(F)(F)F)CC4)n3)cc2)C[C@H](C)O1` (stereo partly drawn) [Example 261, 4-(((2-((4-((2S,6R)-2,6-dimethylmorpholino)phenyl)amino)-5-fluoropyrimidin-4-yl)oxy)methyl)-1-(trifluoromethyl)cyclohexan-1-ol]: the IC50 was 50 to 200 nM.

As to `COc1nn(C(C)C)cc1Nc1ncc(F)c(OC[C@H]2CC[C@H](NC(=O)C(F)(F)F)CC2)n1` [Example 213, 2,2,2-trifluoro-N-((1R,4R)-4-(((5-fluoro-2-((1-isopropyl-3-methoxy-1H-pyrazol-4-yl)amino)pyrimidin-4-yl)oxy)methyl)cyclohexyl) acetamide], the IC50 is < 50 nM.

Turning to `CN1CCC(COc2nc(Nc3ccc(N4CCOCC4)cc3)ncc2Cl)CC1` [Example 56, 5-chloro-4-((1-methylpiperidin-4-yl)methoxy)-N-(4-morpholinophenyl)py-rimidin-2-amine], the IC50 is < 50 nM.

As for `COCCn1ncc(Nc2ncc(F)c(OC[C@H]3CC[C@H](O)CC3)n2)c1Cl` [Example 241, (1R,4R)-4-(((2-((5-chloro-1-(2-methoxyethyl)-1H-pyrazol-4-yl)amino)-5-fluoropyrimidin-4-yl)oxy)methyl)cyclohexan-1-ol], the IC50 is 50 to 200 nM.

As for `CCN1CCN(c2ccc(Nc3ncc(Cl)c(OCC4CCC(O)CC4)n3)nc2)CC1` (centres unmarked) [Example 132, 4-(((5-chloro-2-((5-(4-ethylpiperazin-1-yl)pyridin-2-yl)amino)pyrimidin-4-yl)oxy)methyl)cyclohexan-1-ol], the IC50 fell in the range of 50 to 200 nM.

Consider `C[C@@H]1CN(c2ccc(Nc3ncc(F)c(OC[C@H]4CC[C@H](OC(F)F)CC4)n3)cc2)C[C@H](C)O1` [Example 285, 4-(((1R,4R)-4-(difluoromethoxy)cyclohexyl)methoxy)-N-(4-((2S,6R)-2,6-dimethylmorpholino)phenyl)-5-fluoropyrimidin-2-amine], for which the IC50 was in the range of 200 to 400 nM.

For `CC(=O)N[C@H]1CC[C@H](COc2nc(Nc3ccc(N4CCOCC4)cc3)ncc2C2CC2)CC1` [Example 88, N-((1R,4R)-4-(((5-cyclopropyl-2-((4-morpholinophenyl)amino)pyrimidin-4-yl)oxy)methyl)cyclo-hexyl)acetamide], the IC50 is 50 to 200 nM.

For the compound `COc1cc(C(=O)N2CCOCC2)c(F)cc1Nc1ncc(F)c(OC[C@H]2CC[C@H](NC(C)=O)CC2)n1` [Example 182, N-((1R,4R)-4-(((5-fluoro-2-((5-fluoro-2-methoxy-4-(morpholine-4-carbonyl)phenyl)amino)pyrimidin-4-yl)oxy)methyl)cyclo-hexyl)acetamide], the IC50 lay within 50 to 200 nM.

As for `C[C@@H]1CN(c2ccc(Nc3ncc(F)c(OCC4CCNCC4F)n3)cc2)C[C@H](C)O1` (single isomer, unassigned) [Example 169], the IC50 lay within 50 to 200 nM.

Take `Cc1nn(C(C)(C)C#N)cc1Nc1ncc(Cl)c(OCC2CC(F)(F)C2)n1` [Example 154, 2-(4-((5-chloro-4-((3,3-difluorocyclobutyl)methoxy)pyrimidin-2-yl)amino)-3-methyl-1H-pyrazol-1-yl)-2-methylpropanenitrile]: the IC50 is < 50 nM.
